Reference: ChEMBL document CHEMBL1201862, “PubChem BioAssay data set” (2004)
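A five-concentration, 48-hour dose response in 96-well plates underlies each endpoint, interpolated linearly between surrounding concentrations. At the GI50, growth is halved.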 The source made the active and inactive calls. Rule as the data show it: active = GI50 up to about 1.1 µM and inactive = higher.

Assays:
Assay in all cases: growth of human tumour cells (NCI), 48 h
U-251 = tested on: U-251
UO-31 = tested on: UO-31
T47D = tested on: T47D
SK-OV-3 = tested on: SK-OV-3
EKVX = tested on: EKVX
SK-MEL-28 = tested on: SK-MEL-28
OVCAR-5 = tested on: OVCAR-5
SF-295 = tested on: SF-295
IGROV-1 = tested on: IGROV-1
A498 = tested on: A498
RPMI-8226 = tested on: RPMI-8226
MDA-MB-231 = tested on: MDA-MB-231
SNB-19 = tested on: SNB-19
Hs-578T = tested on: Hs-578T
HL-60 = tested on: HL-60
KM12 = tested on: KM12
NCI-H522 = tested on: NCI-H522
A549 = tested on: A549
CAKI-1 = tested on: CAKI-1
M14 = tested on: M14
MOLT-4 = tested on: MOLT-4
SNB-75 = tested on: SNB-75
SF-268 = tested on: SF-268
HCT-15 = tested on: HCT-15
786-0 = tested on: 786-0
K562 = tested on: K562
UACC-62 = tested on: UACC-62
HT-29 = tested on: HT-29
BT-549 = tested on: BT-549
NCI-H226 = tested on: NCI-H226
HOP-92 = tested on: HOP-92
OVCAR-3 = tested on: OVCAR-3
SK-MEL-5 = tested on: SK-MEL-5
TK-10 = tested on: TK-10
SF-539 = tested on: SF-539
CCRF-CEM = tested on: CCRF-CEM
NCI/ADR-RES = tested on: NCI/ADR-RES
HCC 2998 = tested on: HCC 2998
HOP-62 = tested on: HOP-62
NCI-H460 = tested on: NCI-H460
NCI-H23 = tested on: NCI-H23
SW-620 = tested on: SW-620
HCT-116 = tested on: HCT-116
SR = tested on: SR
OVCAR-4 = tested on: OVCAR-4
MDA-MB-435 = tested on: MDA-MB-435
LOX IMVI = tested on: LOX IMVI
SK-MEL-2 = tested on: SK-MEL-2
PC-3 = tested on: PC-3
RXF 393 = tested on: RXF 393
OVCAR-8 = tested on: OVCAR-8
COLO 205 = tested on: COLO 205
MDA-N = tested on: MDA-N
SN12C = tested on: SN12C
UACC-257 = tested on: UACC-257
Malme-3M = tested on: Malme-3M
ACHN = tested on: ACHN
DU-145 = tested on: DU-145
MCF7 = tested on: MCF7

With `c1ccc2sc(C3(N4CCCCC4)CCCCCC3)cc2c1` the GI50 (U-251) was 17.3 µM (inactive), the GI50 (UO-31) was 25.1 µM (inactive) and the GI50 (T47D) was 14.5 µM (inactive). The GI50 (SK-OV-3) was 25.3 µM (inactive), the GI50 (EKVX) was 22.9 µM (inactive) and the GI50 (SK-MEL-28) was 4.62 µM (inactive). The GI50 (OVCAR-5) was 18.8 µM (inactive), the GI50 (SF-295) was 22.4 µM (inactive) and the GI50 (IGROV-1) was 23.4 µM (inactive). The GI50 (A498) was 15.2 µM (inactive), the GI50 (RPMI-8226) was 14.2 µM (inactive) and the GI50 (MDA-MB-231) was 23 µM (inactive). The GI50 (SNB-19) was 20.8 µM (inactive), the GI50 (Hs-578T) was 18.9 µM (inactive) and the GI50 (HL-60) was 2.1 µM (inactive). For the same compound, the GI50 (KM12) was 17.1 µM (inactive), the GI50 (NCI-H522) was 17.5 µM (inactive) and the GI50 (A549) was 30 µM (inactive). For the same compound, the GI50 (CAKI-1) was 26.7 µM (inactive), the GI50 (M14) was 27 µM (inactive) and the GI50 (MOLT-4) was 15.2 µM (inactive). For the same compound, the GI50 (SNB-75) was 15.2 µM (inactive), the GI50 (SF-268) was 25.4 µM (inactive) and the GI50 (HCT-15) was 17.3 µM. The GI50 (786-0) was 20.9 µM (inactive), the GI50 (K562) was 16.4 µM (inactive) and the GI50 (UACC-62) was 25.4 µM (inactive). The GI50 (HT-29) was 14.8 µM (inactive), the GI50 (BT-549) was 24.7 µM (inactive) and the GI50 (NCI-H226) was 17.3 µM (inactive). For the same compound, the GI50 (HOP-92) was 22.1 µM (inactive), the GI50 (OVCAR-3) was 19.4 µM (inactive) and the GI50 (SK-MEL-5) was 16.6 µM (inactive). For the same compound, the GI50 (TK-10) was 25.1 µM (inactive), the GI50 (SF-539) was 21 µM (inactive) and the GI50 (CCRF-CEM) was 13.2 µM (inactive). The GI50 (NCI/ADR-RES) was 20.5 µM (inactive), the GI50 (HCC 2998) was 13.4 µM (inactive) and the GI50 (HOP-62) was 28.8 µM (inactive). For the same compound, the GI50 (NCI-H460) was 17.1 µM (inactive), the GI50 (NCI-H23) was 20.5 µM (inactive) and the GI50 (SW-620) was 12 µM (inactive). The GI50 (HCT-116) was 15.5 µM (inactive), the GI50 (SR) was 19.1 µM (inactive) and the GI50 (OVCAR-4) was 25.8 µM (inactive). The GI50 (MDA-MB-435) was 22.3 µM (inactive), the GI50 (LOX IMVI) was 18.5 µM (inactive) and the GI50 (SK-MEL-2) was 25.9 µM (inactive). The GI50 (PC-3) was 15.5 µM (inactive), the GI50 (RXF 393) was 14.5 µM (inactive) and the GI50 (OVCAR-8) was 26.1 µM (inactive). For the same compound, the GI50 (COLO 205) was 16.6 µM (inactive), the GI50 (MDA-N) was 34.9 µM (inactive) and the GI50 (SN12C) was 20.4 µM (inactive). The GI50 (UACC-257) was 18.8 µM (inactive), the GI50 (Malme-3M) was 24 µM (inactive) and the GI50 (ACHN) was 17.6 µM (inactive). For the same compound, the GI50 (DU-145) was 31.1 µM (inactive) and the GI50 (MCF7) was 17.8 µM (inactive).
